Source: ChEMBL document CHEMBL1147772, “The identification of potent and selective imidazole-based inhibitors of B-Raf kinase” (Bioorg Med Chem Lett, 2006)

Columns and labels:
[1] = molecular target: T1, Serine/threonine-protein kinase B-raf (Homo sapiens, UniProt P15056)
Description: Inhibition bRaf kinase activity

[2] = molecular target: T1, Serine/threonine-protein kinase B-raf; remark: listed apart in the source
Description: Binding affinity at bRaf kinase in fluorescent ligand displacement assay

[3] = molecular target: Mitogen-activated protein kinase 1 (Homo sapiens) (UniProt P28482); experiment: Inhibition of MAPK2 activity at 10 uM
[4] = molecular target: Rho-associated protein kinase 2 (Homo sapiens) (UniProt O75116); experiment: Inhibition of ROCK2 activity at 10 uM
[5] = molecular target: Protein kinase C alpha type (Homo sapiens) (UniProt P17252); experiment: Inhibition of PKCalpha activity at 10 uM
[6] = molecular target: Phosphorylase kinase (Homo sapiens) (UniProt P15735+P46020+P46019+Q93100+Q16816); experiment: Inhibition of phosphorylase kinase activity at 10 uM; assay type: protein-complex assay
[7] = molecular target: Ribosomal protein S6 kinase alpha-5 (Homo sapiens) (UniProt O75582); experiment: Inhibition of MSK1 activity at 10 uM
[8] = molecular target: RAC-alpha serine/threonine-protein kinase (Homo sapiens) (UniProt P31749); experiment: Inhibition of PKBalpha activity at 10 uM
[9] = molecular target: MAP kinase-activated protein kinase 5 (Homo sapiens) (UniProt Q8IW41); experiment: Inhibition of PRAK activity at 10 uM
[10] = molecular target: Mitogen-activated protein kinase 8 (Homo sapiens) (UniProt P45983); experiment: Inhibition of JNK1 activity at 10 uM
[11] = molecular target: Glycogen synthase kinase-3 beta (Homo sapiens) (UniProt P49841); experiment: Inhibition of GSK3-beta activity at 10 uM
[12] = molecular target: Serine/threonine-protein kinase Sgk1 (Homo sapiens) (UniProt O00141); experiment: Inhibition of SGK activity at 10 uM
[13] = molecular target: Dual specificity mitogen-activated protein kinase kinase 1 (Homo sapiens) (UniProt Q02750); experiment: Inhibition of MEK1 activity at 10 uM
[14] = molecular target: AMP-activated protein kinase, AMPK (Homo sapiens) (UniProt P54646+O43741+P54619+Q9UGJ0+Q9Y478+Q13131+Q9UGI9); experiment: Inhibition of AMPK activity at 10 uM; assay type: protein-complex assay
[15] = molecular target: Serine/threonine-protein kinase Chk1 (Homo sapiens) (UniProt O14757); experiment: Inhibition of CHK1 activity at 10 uM
[16] = molecular target: Casein kinase II (Homo sapiens) (UniProt P67870+P68400+P19784); experiment: Inhibition of CK2 activity at 10 uM; assay type: protein-complex assay
[17] = molecular target: Ribosomal protein S6 kinase (P70S6K) (Homo sapiens) (UniProt Q9UBS0+P23443); experiment: Inhibition of p70S6K activity at 10 uM; assay type: protein-complex assay
[18] = molecular target: MAP kinase-activated protein kinase 2 (Homo sapiens) (UniProt P49137); experiment: Inhibition of MAPKAPK2 activity at 10 uM
[19] = molecular target: Mitogen-activated protein kinase 12 (Homo sapiens) (UniProt P53778); experiment: Inhibition of p38-gamma MAPK activity at 10 uM
[20] = molecular target: Tyrosine-protein kinase Lck (Homo sapiens) (UniProt P06239); experiment: Inhibition of Lck activity at 10 uM
[21] = molecular target: cAMP-dependent protein kinase (PKA) (Homo sapiens) (UniProt P22694+P17612+P22612); experiment: Inhibition of PKA activity at 10 uM; assay type: protein assay
[22] = molecular target: Mitogen-activated protein kinase 11 (Homo sapiens) (UniProt Q15759); experiment: Inhibition of p38-beta MAPK activity at 10 uM
[23] = molecular target: Mitogen-activated protein kinase 13 (Homo sapiens) (UniProt O15264); experiment: Inhibition of p38delta MAPK activity at 10 uM

T1 sequence (P15056 whole entry): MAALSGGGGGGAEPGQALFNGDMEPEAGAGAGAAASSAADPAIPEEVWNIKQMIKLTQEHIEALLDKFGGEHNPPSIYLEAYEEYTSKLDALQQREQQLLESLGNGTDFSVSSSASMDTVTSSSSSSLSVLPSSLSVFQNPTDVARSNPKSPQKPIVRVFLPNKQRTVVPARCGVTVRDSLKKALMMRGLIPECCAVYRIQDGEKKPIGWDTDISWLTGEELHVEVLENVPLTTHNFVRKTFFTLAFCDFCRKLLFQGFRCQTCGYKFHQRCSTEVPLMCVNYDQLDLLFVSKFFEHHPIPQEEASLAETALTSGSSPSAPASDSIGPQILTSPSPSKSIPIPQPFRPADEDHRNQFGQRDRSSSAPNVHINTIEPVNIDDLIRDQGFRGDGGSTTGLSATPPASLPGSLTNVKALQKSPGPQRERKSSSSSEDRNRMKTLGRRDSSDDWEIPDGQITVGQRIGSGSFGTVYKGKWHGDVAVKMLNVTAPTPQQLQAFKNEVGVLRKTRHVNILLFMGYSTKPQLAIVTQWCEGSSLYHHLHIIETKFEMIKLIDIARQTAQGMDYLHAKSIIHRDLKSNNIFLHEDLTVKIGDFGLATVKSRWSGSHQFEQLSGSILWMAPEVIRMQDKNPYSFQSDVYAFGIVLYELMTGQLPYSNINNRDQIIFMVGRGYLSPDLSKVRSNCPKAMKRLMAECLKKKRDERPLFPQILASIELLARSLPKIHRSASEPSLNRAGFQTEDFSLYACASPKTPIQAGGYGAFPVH
Chain of Dual specificity mitogen-activated protein kinase kinase 1 (Homo sapiens) (Q02750 whole entry): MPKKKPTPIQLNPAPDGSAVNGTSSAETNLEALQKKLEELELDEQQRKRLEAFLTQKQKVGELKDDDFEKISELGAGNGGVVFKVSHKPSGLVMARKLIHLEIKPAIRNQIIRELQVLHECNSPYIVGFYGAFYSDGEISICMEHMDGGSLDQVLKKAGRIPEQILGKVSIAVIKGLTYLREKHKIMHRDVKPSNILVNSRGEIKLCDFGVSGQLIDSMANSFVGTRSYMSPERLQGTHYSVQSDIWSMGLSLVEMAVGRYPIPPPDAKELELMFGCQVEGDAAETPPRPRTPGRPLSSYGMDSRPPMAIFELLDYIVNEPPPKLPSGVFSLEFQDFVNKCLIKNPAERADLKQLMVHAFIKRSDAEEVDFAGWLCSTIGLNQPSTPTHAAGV
Chain of Rho-associated protein kinase 2 (Homo sapiens) (O75116 whole entry, looked up): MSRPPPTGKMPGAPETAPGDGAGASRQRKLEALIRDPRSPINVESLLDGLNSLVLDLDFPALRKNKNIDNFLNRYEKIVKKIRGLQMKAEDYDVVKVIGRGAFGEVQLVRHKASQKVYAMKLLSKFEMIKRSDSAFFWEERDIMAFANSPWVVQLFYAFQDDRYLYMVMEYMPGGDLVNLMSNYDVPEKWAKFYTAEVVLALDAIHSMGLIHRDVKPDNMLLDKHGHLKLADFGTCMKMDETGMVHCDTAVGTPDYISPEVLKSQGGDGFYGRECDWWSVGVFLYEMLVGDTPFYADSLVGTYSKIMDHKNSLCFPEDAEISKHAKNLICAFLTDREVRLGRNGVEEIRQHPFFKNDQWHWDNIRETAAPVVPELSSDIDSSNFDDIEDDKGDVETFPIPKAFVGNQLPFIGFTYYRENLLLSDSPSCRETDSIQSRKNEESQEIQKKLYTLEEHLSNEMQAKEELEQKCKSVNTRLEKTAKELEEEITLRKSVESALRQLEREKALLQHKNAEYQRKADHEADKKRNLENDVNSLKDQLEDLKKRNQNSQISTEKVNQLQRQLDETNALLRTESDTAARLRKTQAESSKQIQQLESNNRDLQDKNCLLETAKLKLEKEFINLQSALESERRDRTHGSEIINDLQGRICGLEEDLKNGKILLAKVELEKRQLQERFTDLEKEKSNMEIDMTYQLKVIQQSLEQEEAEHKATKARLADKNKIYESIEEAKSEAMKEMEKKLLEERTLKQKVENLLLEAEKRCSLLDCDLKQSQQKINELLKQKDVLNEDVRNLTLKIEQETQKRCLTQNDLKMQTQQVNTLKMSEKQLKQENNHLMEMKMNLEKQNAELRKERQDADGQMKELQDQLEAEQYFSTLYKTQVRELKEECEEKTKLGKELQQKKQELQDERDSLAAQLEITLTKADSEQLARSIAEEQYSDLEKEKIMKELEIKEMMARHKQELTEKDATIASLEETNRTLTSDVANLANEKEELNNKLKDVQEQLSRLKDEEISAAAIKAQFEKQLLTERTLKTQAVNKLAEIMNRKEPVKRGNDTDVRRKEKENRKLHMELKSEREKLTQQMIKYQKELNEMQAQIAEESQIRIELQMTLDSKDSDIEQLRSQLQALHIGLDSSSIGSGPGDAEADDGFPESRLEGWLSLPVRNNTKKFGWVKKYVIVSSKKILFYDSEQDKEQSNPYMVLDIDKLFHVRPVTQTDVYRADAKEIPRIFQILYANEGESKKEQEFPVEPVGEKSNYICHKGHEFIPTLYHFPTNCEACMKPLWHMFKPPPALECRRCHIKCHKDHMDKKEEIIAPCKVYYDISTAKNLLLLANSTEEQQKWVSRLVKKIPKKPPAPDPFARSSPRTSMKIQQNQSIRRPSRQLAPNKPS
Chain of MAP kinase-activated protein kinase 2 (Homo sapiens) (P49137 whole entry, looked up): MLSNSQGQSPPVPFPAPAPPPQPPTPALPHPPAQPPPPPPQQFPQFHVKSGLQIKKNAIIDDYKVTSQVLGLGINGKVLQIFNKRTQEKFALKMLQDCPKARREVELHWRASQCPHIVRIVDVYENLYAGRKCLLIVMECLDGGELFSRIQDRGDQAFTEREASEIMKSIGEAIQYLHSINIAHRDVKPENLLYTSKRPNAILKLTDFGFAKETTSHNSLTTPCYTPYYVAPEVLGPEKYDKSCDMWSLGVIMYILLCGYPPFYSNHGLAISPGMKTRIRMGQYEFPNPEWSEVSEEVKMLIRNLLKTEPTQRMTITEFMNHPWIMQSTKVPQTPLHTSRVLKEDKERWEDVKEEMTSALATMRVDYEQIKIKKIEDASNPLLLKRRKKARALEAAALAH
Chain of Ribosomal protein S6 kinase alpha-5 (Homo sapiens) (O75582 whole entry, looked up): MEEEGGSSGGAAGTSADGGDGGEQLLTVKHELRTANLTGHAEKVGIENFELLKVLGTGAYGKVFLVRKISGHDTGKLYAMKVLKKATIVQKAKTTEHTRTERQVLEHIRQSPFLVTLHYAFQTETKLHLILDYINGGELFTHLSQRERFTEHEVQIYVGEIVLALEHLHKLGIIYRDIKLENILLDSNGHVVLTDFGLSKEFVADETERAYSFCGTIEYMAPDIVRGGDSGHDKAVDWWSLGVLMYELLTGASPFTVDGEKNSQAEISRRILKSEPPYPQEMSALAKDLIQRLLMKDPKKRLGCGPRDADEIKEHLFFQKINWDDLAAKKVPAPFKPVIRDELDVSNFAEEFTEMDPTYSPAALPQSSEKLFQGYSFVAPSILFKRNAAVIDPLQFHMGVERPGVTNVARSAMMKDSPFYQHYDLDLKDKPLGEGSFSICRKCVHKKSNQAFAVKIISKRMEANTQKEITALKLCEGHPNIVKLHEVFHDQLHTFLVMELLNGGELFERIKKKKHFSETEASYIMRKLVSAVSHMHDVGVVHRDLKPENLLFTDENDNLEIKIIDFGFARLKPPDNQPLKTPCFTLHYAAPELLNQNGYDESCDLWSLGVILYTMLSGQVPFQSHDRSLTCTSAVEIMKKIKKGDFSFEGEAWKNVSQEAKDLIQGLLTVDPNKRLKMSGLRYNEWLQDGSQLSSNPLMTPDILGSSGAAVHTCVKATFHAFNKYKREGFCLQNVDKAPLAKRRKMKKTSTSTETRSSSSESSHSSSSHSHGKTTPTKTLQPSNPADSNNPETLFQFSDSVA
Chain of RAC-alpha serine/threonine-protein kinase (Homo sapiens) (P31749 whole entry): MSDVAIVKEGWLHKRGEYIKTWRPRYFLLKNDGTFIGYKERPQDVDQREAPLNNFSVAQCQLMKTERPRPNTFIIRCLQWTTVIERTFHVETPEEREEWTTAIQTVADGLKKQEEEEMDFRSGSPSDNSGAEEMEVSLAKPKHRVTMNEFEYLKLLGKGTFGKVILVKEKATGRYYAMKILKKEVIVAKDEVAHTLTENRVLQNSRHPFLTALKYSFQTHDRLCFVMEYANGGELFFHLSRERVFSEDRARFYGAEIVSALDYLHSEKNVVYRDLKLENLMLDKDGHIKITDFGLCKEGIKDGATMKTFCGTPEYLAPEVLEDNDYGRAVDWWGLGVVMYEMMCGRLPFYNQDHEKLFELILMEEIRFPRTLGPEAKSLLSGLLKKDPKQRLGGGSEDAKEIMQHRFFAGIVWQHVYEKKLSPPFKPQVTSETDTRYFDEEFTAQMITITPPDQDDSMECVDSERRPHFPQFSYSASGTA

## CC(C)(C)c1nc(-c2ccncc2)c(-c2ccc(F)cc2)[nH]1
[1]
  IC50: 900 nM

## Oc1cc(-c2[nH]c(-c3ccccc3)nc2-c2ccncn2)ccc1Cl
[2]
  Kd: 14 nM

## Oc1cc(-c2[nH]c(-c3ccco3)nc2-c2ccncc2)ccc1Cl
[1]
  IC50: 13 nM
[2]
  Kd: 4.2 nM

## OCc1ccc(-c2[nH]c(-c3ccccc3)nc2-c2ccncc2)cc1Cl
[2]
  Kd: 132 nM

## Oc1ccc(-c2nc(-c3ccccc3)[nH]c2-c2ccncc2)cc1
[1]
  IC50: 339 nM
[2]
  Kd: 316 nM

## Oc1cccc(-c2nc(-c3ccccc3)[nH]c2-c2ccncc2)c1
[2]
  Kd: 8 nM

## CN(C)CCCNC(=O)c1nc(-c2ccncc2)c(-c2ccc(Cl)c(O)c2)[nH]1
[1]
  IC50: 40 nM
[2]
  Kd: 24 nM

## CC(C)(CN)c1nc(-c2ccc(Cl)c(O)c2)c(-c2ccncc2)[nH]1
[1]
  IC50: 6 nM
[2]
  Kd: 4.8 nM

## O/N=C/c1ccc(-c2[nH]c(-c3ccccc3)nc2-c2ccncc2)cc1Cl
[2]
  Kd: 6 nM

## Oc1cc(-c2[nH]c(-c3ccccc3)nc2-c2cccnc2)ccc1Cl
[2]
  Kd: > 200 nM

## O/N=C/c1ccc(-c2[nH]c(-c3ccccc3)nc2-c2ccncc2)cc1O
[2]
  Kd: 27 nM

## Oc1cc(-c2[nH]c(-c3ccccc3)nc2-c2ccccc2)ccc1Cl
[2]
  Kd: > 200 nM

## CC(C)(C)c1nc(-c2ccncc2)c(-c2ccc(Cl)c(O)c2)[nH]1
[1]
  IC50: 12 nM
[2]
  Kd: 2 nM

## OCc1cccc(-c2[nH]c(-c3ccccc3)nc2-c2ccncc2)c1
[1]
  IC50: 1590 nM
[2]
  Kd: > 196 nM

## Oc1cc(-c2nc(-c3ccccc3)[nH]c2-c2ccncc2)ccc1Cl
[3]
  inhibition: -3%
[4]
  inhibition: 3%
[5]
  inhibition: 2%
[1]
  IC50: 10 nM
[6]
  inhibition: 17%
[7]
  inhibition: 7%
[8]
  inhibition: 44%
[9]
  inhibition: 19%
[10]
  inhibition: 0%
[11]
  inhibition: 83%
[12]
  inhibition: 2%
[13]
  inhibition: 5%
[14]
  inhibition: 12%
[15]
  inhibition: 1%
[16]
  inhibition: -3%
[2]
  Kd: 2.4 nM
[17]
  inhibition: 26%
[18]
  inhibition: -1%
[19]
  inhibition: 5%
[20]
  inhibition: 88%
[21]
  inhibition: 12%
[22]
  inhibition: 81%

## COc1cccc(-c2nc(-c3ccccc3)[nH]c2-c2ccncc2)c1
[2]
  Kd: > 196 nM

## O/N=C1/CCCc2cc(-c3[nH]c(-c4ccccc4)nc3-c3ccncc3)ccc21
[2]
  Kd: 17 nM

## CC(C)(CNC(=O)Nc1ccc(Cl)cc1)c1nc(-c2ccc(Cl)c(O)c2)c(-c2ccncc2)[nH]1
[1]
  IC50: 13 nM
[2]
  Kd: 21 nM

## Oc1cc(-c2[nH]c(-c3ccccc3)nc2-c2ccnnc2)ccc1Cl
[2]
  Kd: 87 nM

## OC1CCc2cc(-c3[nH]c(-c4ccccc4)nc3-c3ccncc3)ccc21 (stereo not given)
[2]
  Kd: > 200 nM

## C/C(=N\O)c1ccc(-c2[nH]c(-c3ccccc3)nc2-c2ccncc2)cc1
[2]
  Kd: 11 nM

## OCc1ccc(-c2[nH]c(-c3ccccc3)nc2-c2ccncc2)cc1O
[2]
  Kd: 22 nM

## N=C(NO)c1ccc(-c2[nH]c(-c3ccccc3)nc2-c2ccncc2)cc1
[2]
  Kd: 53 nM

## CC(C)(CNS(C)(=O)=O)c1nc(-c2ccc(Cl)c(O)c2)c(-c2ccncc2)[nH]1
[1]
  IC50: 14 nM
[2]
  Kd: 10 nM

## O/N=C/c1ccc(-c2[nH]c(-c3ccccc3)nc2-c2ccncc2)cc1
[2]
  Kd: 5 nM

## OCc1ccc(-c2[nH]c(-c3ccccc3)nc2-c2ccncc2)cc1
[2]
  Kd: 71 nM

## Nc1nccc(-c2[nH]c(-c3ccccc3)nc2-c2ccc(Cl)c(O)c2)n1
[2]
  Kd: 5.7 nM

## Oc1cc(-c2[nH]cnc2-c2ccncc2)ccc1Cl
[1]
  IC50: 33 nM
[2]
  Kd: 39 nM

## Oc1cc(-c2[nH]c(-c3cccnc3)nc2-c2ccncc2)ccc1Cl
[1]
  IC50: 6 nM

## CN(C)CCOc1ccc(-c2nc(-c3ccncc3)c(-c3ccc4c(c3)CC/C4=N\O)[nH]2)cc1
[3]
  inhibition: 11%
[4]
  inhibition: 26%
[5]
  inhibition: 10%
[23]
  inhibition: 10%
[6]
  inhibition: 3%
[7]
  inhibition: 38%
[8]
  inhibition: 8%
[9]
  inhibition: 18%
[10]
  inhibition: 19%
[11]
  inhibition: 25%
[12]
  inhibition: 17%
[13]
  inhibition: 14%
[14]
  inhibition: 14%
[15]
  inhibition: 9%
[16]
  inhibition: 8%
[17]
  inhibition: 13%
[18]
  inhibition: 9%
[19]
  inhibition: 10%
[20]
  inhibition: 39%
[21]
  inhibition: -2%
[22]
  inhibition: 9%
